The values that follow come from ChEMBL document CHEMBL3421539, “A novel cell-permeable, selective, and noncompetitive inhibitor of KAT3 histone acetyltransferases from a combined molecular pruning/classical isosterism approach” (J Med Chem, 2015).

The structures appear in SMILES notation. Calls of active or inactive are those of the source. The rule behind the calls is not given here.

Series [1] addresses T1, Histone acetyltransferase KAT2B (Homo sapiens, UniProt Q92831). Description: Inhibition of PCAF (unknown origin) using histone H3/[acetyl-3H]-acetyl coenzyme A as substrate at 100 uM.
Target sequence in this assay (Q92831 whole entry, looked up): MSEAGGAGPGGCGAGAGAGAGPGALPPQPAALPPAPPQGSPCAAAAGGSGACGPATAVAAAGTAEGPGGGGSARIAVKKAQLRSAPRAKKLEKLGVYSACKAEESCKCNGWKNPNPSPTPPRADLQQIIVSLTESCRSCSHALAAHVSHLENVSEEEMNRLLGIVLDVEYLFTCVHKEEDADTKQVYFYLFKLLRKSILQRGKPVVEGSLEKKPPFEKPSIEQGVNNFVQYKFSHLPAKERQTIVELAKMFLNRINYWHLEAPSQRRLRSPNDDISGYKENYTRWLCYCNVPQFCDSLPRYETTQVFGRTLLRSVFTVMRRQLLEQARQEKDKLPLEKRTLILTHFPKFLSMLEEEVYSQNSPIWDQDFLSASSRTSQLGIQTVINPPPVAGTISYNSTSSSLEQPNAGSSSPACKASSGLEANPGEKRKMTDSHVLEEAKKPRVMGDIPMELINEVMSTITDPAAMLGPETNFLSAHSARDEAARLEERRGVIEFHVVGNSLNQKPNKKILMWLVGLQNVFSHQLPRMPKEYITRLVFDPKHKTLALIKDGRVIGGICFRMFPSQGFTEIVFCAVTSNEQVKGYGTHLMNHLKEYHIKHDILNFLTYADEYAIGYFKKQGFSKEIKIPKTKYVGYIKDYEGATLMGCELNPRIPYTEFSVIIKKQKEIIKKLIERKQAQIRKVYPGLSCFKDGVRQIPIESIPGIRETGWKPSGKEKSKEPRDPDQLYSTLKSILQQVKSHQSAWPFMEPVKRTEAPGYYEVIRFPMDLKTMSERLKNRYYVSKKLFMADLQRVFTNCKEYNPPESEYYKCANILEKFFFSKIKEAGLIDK
Series [2] addresses T2, Histone acetyltransferase p300 (Homo sapiens, UniProt Q09472). Put plainly: Inhibition of P300 (unknown origin) using histone H3/[acetyl-3H]-acetyl coenzyme A as substrate.
Series [3] in a line: Stability of the compound in organic solvent assessed as hydrolysis after 10 mins to 24 hrs by HPLC analysis. In kind it is physicochemical.
Series [4] can be described thus: Stability of the compound in aqueous medium assessed as hydrolysis after 10 mins to 24 hrs by HPLC analysis. The settings on record: buffer. In kind it is physicochemical.
Series [5] concerns the target T2, Histone acetyltransferase p300. Put plainly: Inhibition of P300 (unknown origin) using histone H3/[acetyl-3H]-acetyl coenzyme A as substrate at 100 uM.
Series [6] is described as follows: Apparent permeability of the compound at RT after 24 hrs by PAMPA. In kind it is physicochemical.
The target in series [7] is T2, Histone acetyltransferase p300. The note with it: 10 uM.
Description: Inhibition of P300 (unknown origin) using histone H3/[acetyl-3H]-acetyl coenzyme A as substrate at 10 uM
For series [8], the target named is T1, Histone acetyltransferase KAT2B. Description: Inhibition of PCAF (unknown origin) using histone H3/[acetyl-3H]-acetyl coenzyme A as substrate.
Target sequence in this assay (Q92831 whole entry): as the sequence (Q92831 whole entry, looked up) above
For series [9] the target is unchanged. Description: Inhibition of PCAF (unknown origin) using histone H3/[acetyl-3H]-acetyl coenzyme A as substrate at 10 uM.
Target sequence in this assay (Q92831 whole entry, looked up): as above
The target in series [10] is T2, Histone acetyltransferase p300. Description: Binding affinity to human recombinant P300 catalytic domain by SPR analysis.
A short description of series [11]: Stability of the compound in PBS at 25 degC after 2 mins to 24 hrs by HPLC analysis. In kind it is physicochemical. The settings on record: buffer.
A short description of series [12]: Stability of the compound in aqueous medium assessed as hydrolysis after 30 mins by HPLC analysis. In kind it is physicochemical. The note with it: buffer, 0.5 h.
In series [13] the target is T2, Histone acetyltransferase p300. Description: Inhibition of P300 in […] at 30 uM up to 40 mins by Histac FRET analysis. In kind it is cell-based. The settings on record: COS-7.

T2 sequence (Q09472 whole entry): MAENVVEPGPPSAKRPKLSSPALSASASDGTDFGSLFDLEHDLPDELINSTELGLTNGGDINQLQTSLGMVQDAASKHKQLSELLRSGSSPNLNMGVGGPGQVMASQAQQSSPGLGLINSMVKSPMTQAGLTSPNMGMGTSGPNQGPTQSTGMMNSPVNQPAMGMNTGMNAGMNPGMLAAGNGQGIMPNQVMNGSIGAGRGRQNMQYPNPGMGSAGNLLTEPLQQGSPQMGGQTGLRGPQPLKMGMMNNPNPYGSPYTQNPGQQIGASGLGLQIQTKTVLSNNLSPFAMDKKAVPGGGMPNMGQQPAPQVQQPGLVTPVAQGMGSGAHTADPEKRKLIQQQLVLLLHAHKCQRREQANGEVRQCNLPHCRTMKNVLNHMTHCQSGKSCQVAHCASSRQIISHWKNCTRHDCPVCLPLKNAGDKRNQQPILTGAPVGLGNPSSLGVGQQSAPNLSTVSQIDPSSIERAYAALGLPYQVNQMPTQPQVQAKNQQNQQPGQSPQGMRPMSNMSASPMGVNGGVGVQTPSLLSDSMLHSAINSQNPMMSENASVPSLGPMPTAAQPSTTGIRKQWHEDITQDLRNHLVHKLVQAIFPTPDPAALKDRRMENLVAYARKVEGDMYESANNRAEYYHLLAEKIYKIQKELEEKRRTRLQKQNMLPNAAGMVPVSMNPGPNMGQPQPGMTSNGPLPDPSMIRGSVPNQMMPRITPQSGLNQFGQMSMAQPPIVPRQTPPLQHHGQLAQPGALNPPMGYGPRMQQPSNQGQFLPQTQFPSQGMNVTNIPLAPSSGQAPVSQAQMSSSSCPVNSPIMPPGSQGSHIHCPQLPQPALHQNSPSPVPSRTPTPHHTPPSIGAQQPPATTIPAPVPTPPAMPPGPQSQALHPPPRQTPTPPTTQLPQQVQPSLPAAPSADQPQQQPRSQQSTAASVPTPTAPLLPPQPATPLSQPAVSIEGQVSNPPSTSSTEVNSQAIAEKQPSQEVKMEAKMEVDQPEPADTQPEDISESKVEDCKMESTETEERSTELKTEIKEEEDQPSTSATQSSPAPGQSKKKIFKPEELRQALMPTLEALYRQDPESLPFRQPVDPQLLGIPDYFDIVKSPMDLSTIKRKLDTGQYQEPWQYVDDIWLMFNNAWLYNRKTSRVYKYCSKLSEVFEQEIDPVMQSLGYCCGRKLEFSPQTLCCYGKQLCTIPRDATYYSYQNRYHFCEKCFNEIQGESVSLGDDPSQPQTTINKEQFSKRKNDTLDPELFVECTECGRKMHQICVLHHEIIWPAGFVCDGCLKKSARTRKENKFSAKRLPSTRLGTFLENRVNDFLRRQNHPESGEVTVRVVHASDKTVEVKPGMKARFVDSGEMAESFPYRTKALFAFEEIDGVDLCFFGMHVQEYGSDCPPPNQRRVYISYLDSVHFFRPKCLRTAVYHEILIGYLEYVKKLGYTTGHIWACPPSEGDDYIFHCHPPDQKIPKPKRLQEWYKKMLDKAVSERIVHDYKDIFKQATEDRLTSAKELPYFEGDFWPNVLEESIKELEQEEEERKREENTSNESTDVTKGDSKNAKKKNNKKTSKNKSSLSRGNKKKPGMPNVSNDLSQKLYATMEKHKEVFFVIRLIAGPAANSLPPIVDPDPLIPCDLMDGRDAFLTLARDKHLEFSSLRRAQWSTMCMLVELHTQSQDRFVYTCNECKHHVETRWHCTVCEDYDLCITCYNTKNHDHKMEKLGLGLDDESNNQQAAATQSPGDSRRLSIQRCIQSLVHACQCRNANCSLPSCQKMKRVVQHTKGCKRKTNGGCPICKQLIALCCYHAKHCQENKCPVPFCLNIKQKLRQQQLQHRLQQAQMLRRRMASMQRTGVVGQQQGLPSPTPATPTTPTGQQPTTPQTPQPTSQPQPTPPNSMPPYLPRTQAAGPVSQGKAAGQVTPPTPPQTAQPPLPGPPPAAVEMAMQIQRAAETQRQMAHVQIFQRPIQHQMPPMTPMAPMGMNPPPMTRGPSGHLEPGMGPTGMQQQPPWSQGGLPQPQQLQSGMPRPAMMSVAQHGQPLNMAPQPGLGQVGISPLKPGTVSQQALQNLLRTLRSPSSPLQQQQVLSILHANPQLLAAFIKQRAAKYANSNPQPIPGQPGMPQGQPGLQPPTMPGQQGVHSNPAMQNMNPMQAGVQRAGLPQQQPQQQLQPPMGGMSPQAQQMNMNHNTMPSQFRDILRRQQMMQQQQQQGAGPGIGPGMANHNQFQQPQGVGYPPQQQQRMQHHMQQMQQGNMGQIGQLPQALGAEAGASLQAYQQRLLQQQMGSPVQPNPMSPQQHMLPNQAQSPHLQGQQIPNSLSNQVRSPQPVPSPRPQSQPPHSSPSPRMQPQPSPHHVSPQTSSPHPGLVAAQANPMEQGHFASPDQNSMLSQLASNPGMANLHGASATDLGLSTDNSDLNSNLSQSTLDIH

On to `COc1cc(C=C2C(=O)N(CC(C)C)C(=O)N(CC(C)C)C2=O)ccc1O`, for which the inhibition in series [1] came to 9.3%; in series [5], 96.4%. Further, 4.2 µM corresponded to half-maximal inhibition in series [2] (IC50). Moreover, the Stability entry in series [3] is “Stable”; in series [4], “Unstable”.

For `CC(C)CN1C(=O)C(C(=O)c2ccc(O)cc2)C(=O)N(CC(C)C)C1=O`, the inhibition in series [1] was 19.3%; in series [5], 39.7%.

Regarding `C=CCN1C(=O)C(Cc2ccccc2)C(=O)N(CC=C)C1=O`, the inhibition in series [5] turned out to be 28.9%.

Regarding `COc1ccc(C=C2C(=O)N(Cc3ccccc3)C(=O)N(Cc3ccccc3)C2=O)cc1`, the inhibition in [1] is -8.2%; in series [5] it was 93.6%. Moreover, the IC50 in series [2] was 8 µM. In addition, the Stability entry is listed as “Stable” in [3] and “Unstable” in series [4].

Regarding `O=C(c1ccc(O)cc1)C1C(=O)N(Cc2ccccc2)C(=O)N(Cc2ccccc2)C1=O`, the inhibition in [5] is 54.4%.

Turning to `C=CCN1C(=O)C(=Cc2ccc(O)c(OC)c2)C(=O)N(CC=C)C1=O`, the results for the inhibition in series [1] and in series [5] were 5.1% and 67.3%, respectively. Further, the IC50 in [2] came to 26.4 µM. Also, the Stability result in series [3] was “Stable”; in series [4], “Unstable”.

On to `C=CCN1C(=O)C(=Cc2ccc(O)c(O)c2)C(=O)N(CC=C)C1=O`, for which the inhibition worked out at 3.3% in series [1] and 61.6% in [5]. The Stability entry in series [3] is “Stable”; in series [4], “Unstable”.

With `CC(C)CN1C(=O)C(Cc2ccc(O)c(O)c2)C(=O)N(CC(C)C)C1=O`, the inhibition in series [5] was 24.3%.

Regarding `CC(C)NCC(O)COc1cccc2ccccc12` (stereo not drawn) [PROPRANOLOL], the apparent permeability (Papp) at 24 h in [6] is 4.1 ×10⁻⁶ cm/s.

In [2], `COc1ccc(C=C2C(=O)N(Cc3ccccc3)C(=O)N(Cc3ccccc3)C2=O)cc1OC` showed an IC50 of 11.4 µM. For the same compound, the Stability entry is reported as “Stable” in [3] and “Unstable” in series [4]. Moreover, the inhibition in series [5] turned out to be 88.2%.

Take `O=C(c1ccc(O)c(O)c1)C1C(=O)N(Cc2ccccc2)C(=O)N(Cc2ccccc2)C1=O`: in series [5], the inhibition is 48.2%.

With `CC(C)CN1C(=O)C(Cc2ccc(O)cc2)C(=O)N(CC(C)C)C1=O`, the inhibition came to 5% in series [1] and 64.6% in series [5].

Take `COc1ccc(C=C2C(=O)N(CC(C)C)C(=O)N(CC(C)C)C2=O)cc1O`: the results for the inhibition in [1] and in series [5] were 10.6% and 84.7%, respectively. Also, the IC50 in [2] came out at 31.4 µM. Besides, the values for the Stability result in series [3] and in series [4] were “Stable” and “Unstable”, respectively.

In the case of `COc1ccc(C=C2C(=O)N(CC(C)C)C(=O)N(CC(C)C)C2=O)cc1OC`, the inhibition came out at 9.2% in series [1] and 45.8% in series [5]. The Stability result in series [3] is “Stable”; in series [4] it was “Unstable”.

With `C=CCN1C(=O)C(=Cc2ccc(OC)c(OC)c2)C(=O)N(CC=C)C1=O`, the inhibition in series [1] was determined as 6.6%; in [5] it was 31.1%. In addition, the figures for the Stability result in series [3] and in series [4] were “Stable” and “Unstable”, respectively.

Regarding `CC(C)CN1C(=O)C(=Cc2ccccc2)C(=O)N(CC(C)C)C1=O`, the values for the Stability result in series [3] and in [4] were “Stable” and “Unstable”, respectively.

In series [2], `CC(C)CN1C(=O)C(=Cc2ccc(O)cc2)C(=O)N(CC(C)C)C1=O` yielded a 50% inhibitory concentration (IC50) of 8.5 µM. Moreover, the Stability entry in series [3] is recorded as “Stable”; in [4] it was “Unstable”. For the same compound, the inhibition in series [5] was found to be 94%.

As to `CC(C)CN1C(=O)C(C(=O)c2ccccc2)C(=O)N(CC(C)C)C1=O`, in series [5], the inhibition was 34.1%.

On to `O=C1C(Cc2ccc(O)cc2)C(=O)N(Cc2ccccc2)C(=O)N1Cc1ccccc1`, for which, in [5], the inhibition was 60.3%.

On to `CC1=NN(c2ccc(C(=O)O)cc2)C(=O)/C1=C\Cc1ccc(Cc2cc(C)c(C)cc2[N+](=O)[O-])o1`, for which it took 1.6 µM to reach half-maximal inhibition in series [2] (IC50). The inhibition in series [7] was determined as 86%.

Take `CCCCCCCCCCCCCCCc1cccc(O)c1C(=O)O` [ANACARDIC ACID]: the inhibition was 3.6% in series [1] and below 10% in [9]. In [8], this compound returned a concentration for half-maximal inhibition (IC50) of 33.9 µM.

On to `C=CCN1C(=O)C(Cc2ccc(O)c(O)c2)C(=O)N(CC=C)C1=O`, for which, in series [5], the inhibition is 1.1%.

As for `CC(C)CN1C(=O)C(=Cc2ccc(O)c(O)c2)C(=O)N(CC(C)C)C1=O`, the IC50 in [2] was found to be 5.4 µM. The Stability entry is “Stable” in series [3] and “Unstable” in series [4]. For the same compound, the inhibition in series [5] stood at 91.8%.

`COc1ccc(C=C2C(=O)N(CC(C)C)C(=O)N(CC(C)C)C2=O)cc1`: the inhibition was found to be 3.6% in series [1] and 53.8% in series [5]. For the same compound, the Stability result in series [3] is “Stable”; in series [4], “Unstable”.

Consider `O=C(c1ccccc1)C1C(=O)N(Cc2ccccc2)C(=O)N(Cc2ccccc2)C1=O`, for which the Kd in series [10] was determined as 2.4 µM. For the same compound, in series [11], the Stability entry is on record as “Stable”. In addition, the inhibition in series [5] was 84.8%.

On to `COc1cc(C=C2C(=O)N(Cc3ccccc3)C(=O)N(Cc3ccccc3)C2=O)ccc1O`, for which the midpoint of inhibition in [2], the IC50, lay at 1.5 µM. In addition, the Stability entry in series [3] is on record as “Stable”; in series [12] it was “Unstable”; in [4] it was “Unstable”. Also, the inhibition in [5] worked out at 97.1%.

As for `C=CCN1C(=O)C(C(=O)c2ccccc2)C(=O)N(CC=C)C1=O`, the inhibition in series [5] was 28.1%.

For the compound `C=CCN1C(=O)C(C(=O)c2ccc(O)c(O)c2)C(=O)N(CC=C)C1=O`, the inhibition in series [1] worked out at 3.6%; in [5], 4.9%.

Regarding `O=C1C(=Cc2ccccc2)C(=O)N(Cc2ccccc2)C(=O)N1Cc1ccccc1`, the Stability result in series [3] is recorded as “Stable”; in series [4], “Unstable”.

Consider `CC(C)CN1C(=O)C(Cc2ccccc2)C(=O)N(CC(C)C)C1=O`, for which the inhibition in [5] is 23.1%.

For `C=CCN1C(=O)C(=Cc2ccc(O)cc2)C(=O)N(CC=C)C1=O`, the inhibition in series [1] came out at 3.1%; in series [5], 64.7%. In addition, the results for the Stability result in series [3] and in series [4] were “Stable” and “Unstable”, respectively.

For the compound `O=C1C(Cc2ccc(O)c(O)c2)C(=O)N(Cc2ccccc2)C(=O)N1Cc1ccccc1`, in [5], the inhibition was 59.9%.

As for `C=CCN1C(=O)C(Cc2ccc(O)cc2)C(=O)N(CC=C)C1=O`, the inhibition in [1] is -7.5%; in series [5], 23.7%.

Take `C=CCN1C(=O)C(=Cc2ccc(OC)c(O)c2)C(=O)N(CC=C)C1=O`: the inhibition came to 3% in series [1] and 49.5% in [5]. The Stability entry in series [3] was “Stable”; in series [4] it was “Unstable”.

As to `O=C1C(=Cc2ccc(O)cc2)C(=O)N(Cc2ccccc2)C(=O)N1Cc1ccccc1`, the values for the inhibition in series [1] and in [5] were -0.6% and 99.2%, respectively. Besides, the IC50 in [2] worked out at 2.1 µM. Further, the Stability entry in [3] is given as “Stable”; in series [12], “Unstable”; in series [4], “Unstable”. For the same compound, the inhibition entry in [13] was “Active”.

Consider `O=C1C(Cc2ccccc2)C(=O)N(Cc2ccccc2)C(=O)N1Cc1ccccc1`, for which the dissociation constant (Kd) in series [10] was 0.11 µM. Further, the Stability result in [11] is on record as “Stable”. Further, the inhibition in [5] turned out to be 83.9%.

`C=CCN1C(=O)C(=Cc2ccccc2)C(=O)N(CC=C)C1=O`: the values for the Stability result in series [3] and in series [4] were “Stable” and “Unstable”, respectively.

In the case of `C=CCN1C(=O)C(C(=O)c2ccc(O)cc2)C(=O)N(CC=C)C1=O`, the inhibition in [1] is -2.7%; in series [5], 19.1%.

For the compound `O=C1C(=Cc2ccc(O)c(O)c2)C(=O)N(Cc2ccccc2)C(=O)N1Cc1ccccc1`, the inhibition is -2.3% in series [1] and 96.2% in series [5]. In addition, in series [2], 1.6 µM corresponded to half-maximal inhibition (IC50). Moreover, the Stability result in series [3] was “Stable”; in series [12] it was “Unstable”; in series [4], “Unstable”.

As to `COc1ccc(C=C2C(=O)N(Cc3ccccc3)C(=O)N(Cc3ccccc3)C2=O)cc1O`, in [2], inhibition was half-maximal at 5.9 µM (IC50). Besides, the Stability result was “Stable” in [3], “Unstable” in series [12] and “Unstable” in [4]. Besides, the inhibition in series [5] turned out to be 97.3%.

In the case of `CC(C)CN1C(=O)C(C(=O)c2ccc(O)c(O)c2)C(=O)N(CC(C)C)C1=O`, the inhibition in series [1] is 3.4%; in series [5], 8.4%.

On to `C=CCN1C(=O)C(=Cc2ccc(OC)cc2)C(=O)N(CC=C)C1=O`, for which the inhibition is 11.7% in series [1] and 59.9% in series [5]. Also, the Stability entry in series [3] was “Stable”; in series [4], “Unstable”.
